Test results as given in US8871767B2, “2-arylimidazo[1,2-B]pyridazine, 2-phenylimidazo[1,2-A]pyridine, and 2-phenylimidazo[1,2-A]pyrazine derivatives” (Hengrui (USA) Ltd., priority 2010, dated 2014).
Like-named read-outs stand apart in the source and are kept apart here.

Legend:
[1] = system: Hedgehog pathway activation (GLi-luciferase reporter) in Shh Light II reporter cells; assay: Hedgehog pathway activation on Shh Light II reporter cells measured by luciferase activity; type: cell-based; settings: Mus musculus, Shh Light II
Summary of the method: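 Shh Light II reporter cells carrying a hedgehog-responsive GLi-luciferase reporter were stimulated either with 500 nM SAG, a direct Smoothened agonist, or with conditioned media containing human Sonic Hedgehog (hShh). Test compounds were evaluated for blocking this pathway activation, quantified by luciferase activity. Cell viability was monitored in parallel with the Celltiter-Blue® assay.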

[2] = system: Hedgehog pathway activation on 10T1/2/Smo#3 cells (C3H10T1/2 cells transfected with human Smoothened receptor); assay: Hedgehog pathway activation on 10T1/2/Smo#3 cells measured by ALP activity; type: cell-based; settings: Mus musculus, C3H 10T1/2, 10T1/2/Smo#3 cells
Summary of the method: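 C3H10T1/2 cells stably expressing human Smoothened were activated with hShh-conditioned medium (10-20%) or 500 nM SAG, with test compounds present. Pathway block read as inhibited ALP activity (4-methylumbelliferyl phosphate fluorescence); viability checked by CellTiter-Blue. IC50 values reported.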

[3] = hShh activation, read-out: Shh (IC50, inhibition of Hedgehog pathway activation)
[4] = measured by ALP activity, read-out: ALP (IC50, inhibition of Hedgehog pathway activation)
[5] = SAG activation (500 nM SAG), read-out: Shh Light II luciferase activity (SAG activation)
[6] = hShh activation, read-out: Shh Light II luciferase activity (hShh activation)
[7] = hShh activation, ALP activity, read-out: 10T1/2/Smo#3 ALP activity (hShh Activation)

COC(=O)C=Cc1ccc(Cl)c(-c2ccc3nc(-c4ccc(C)c(NC(=O)C(C)(C)C)c4)cn3n2)c1 [compound 573]
IC50 [1, 3]: 70 nM | IC50 [2, 4]: 1040 nM

FC(F)(F)c1ccc(-c2cn3nc(Cl)ccc3n2)cc1Br [Example 203, 2-(3-bromo-4-(trifluoromethyl)phenyl)-6-chloroimidazo[1,2-b]pyridazine]
IC50 [1, 3]: > 10000 nM | IC50 [2, 4]: 9450 nM

COc1ccc2nc(-c3cc(NC(=O)C(C)(C)C)ccc3Cl)cn2n1 [Example 115, N-(4-chloro-3-(6-methoxyimidazo[1,2-b]pyridazin-2-yl)phenyl)pivalamide]
IC50 [1, 3]: 2870 nM | IC50 [2, 4]: 2810 nM

O=C(Nc1cc(-c2cn3nc(-c4cccnc4C(F)(F)F)ccc3n2)ccc1Cl)C1CCCCC1 [Example 670, N-(2-chloro-5-(6-(2-(trifluoromethyl)pyridin-3-yl)imidazo[1,2-b]pyridazin-2-yl)phenyl)cyclohexanecarboxamide]
IC50 [1, 3]: 61 nM | IC50 [2, 4]: 620 nM

Cc1ccc(-c2cn3nc(-c4cccc(N(C)C)c4)ccc3n2)cc1NC(=O)C(C)(C)C [Example 290, N-(5-(6-(3-(dimethylamino)phenyl)imidazo[1,2-b]pyridazin-2-yl)-2-methylphenyl)pivalamide]
IC50 [1, 3]: 321 nM | IC50 [2, 4]: 296 nM

COc1ccc2nc(-c3ccc(C)c(NC(=O)C(C)(C)C)c3)cn2n1 [Example 94, N-(5-(6-methoxyimidazo[1,2-b]pyridazin-2-yl)-2-methylphenyl)pivalamide]
IC50 [1, 3]: 614 nM | IC50 [2, 4]: 1520 nM

Cc1ccc(-c2cn3nc(-c4ccc(-c5ccc(Cl)nc5)nc4)ccc3n2)cc1NC(=O)C(C)(C)C [Example 401, N-(5-(6-(6′-chloro-2,3′-bipyridin-5-yl)imidazo[1,2-b]pyridazin-2-yl)-2-methylphenyl)pivalamide]
IC50 [1, 3]: 400 nM | IC50 [2, 4]: 234 nM

CC(C)(C)C(=O)Nc1cc(-c2cn3nc(-c4ccc[nH]4)ccc3n2)ccc1C(F)(F)F [Example 179, N-(5-(6-(1H-pyrrol-2-yl)imidazo[1,2-b]pyridazin-2-yl)-2-(trifluoromethyl)phenyl)pivalamide]
IC50 [1, 3]: 454 nM | IC50 [2, 4]: 1440 nM

CNc1ccc2nc(-c3ccc(C(F)(F)F)c(NC(=O)C(C)(C)C)c3)cn2n1 [Example 137, N-(5-(6-(methylamino)imidazo[1,2-b]pyridazin-2-yl)-2-(trifluoromethyl)phenyl)pivalamide]
IC50 [1, 5]: 300 to 3000 nM | IC50 [1, 3]: 623 nM | IC50 [1, 6]: 300 to 3000 nM | IC50 [2, 7]: 300 to 3000 nM | IC50 [2, 4]: 995 nM

CC(C)(C)C(=O)Nc1cc(-c2cn3nc(-c4ccc(F)cc4F)ccc3n2)ccc1C(F)(F)F [Example 183, N-(5-(6-(2,4-difluorophenyl)imidazo[1,2-b]pyridazin-2-yl)-2-(trifluoromethyl)phenyl)pivalamide]
IC50 [1, 3]: 327 nM | IC50 [2, 4]: 995 nM

O=C(Nc1cc(-c2cn3nc(-c4cccnc4C(F)(F)F)ccc3n2)ccc1F)C1CCCC1 [Example 678, N-(2-fluoro-5-(6-(2-(trifluoromethyl)pyridin-3-yl)imidazo[1,2-b]pyridazin-2-yl)phenyl)cyclopentanecarboxamide]
IC50 [1, 3]: 139 nM | IC50 [2, 4]: 342 nM

O=C(CC(F)(F)F)Nc1cc(-c2cn3nc(-c4cccnc4C(F)(F)F)ccc3n2)ccc1F [Example 680, 3,3,3-trifluoro-N-(2-fluoro-5-(6-(2-(trifluoromethyl)pyridin-3-yl)imidazo[1,2-b]pyridazin-2-yl)phenyl)propanamide]
IC50 [1, 3]: 518 nM | IC50 [2, 4]: 3610 nM

Cc1ccc(-c2cn3nc(-c4cccc(OCCCCCC(=O)NO)c4C(F)(F)F)ccc3n2)cc1NC(=O)C(C)(C)C [Example 438, N-hydroxy-6-(3-(2-(4-methyl-3-pivalamidophenyl)imidazo[1,2-b]pyridazin-6-yl)-2-(trifluoromethyl)phenoxy)hexanamide]
IC50 [1, 3]: 1160 nM | IC50 [2, 4]: 2600 nM

CC(C)CNc1ccc2nc(-c3ccc(C(F)(F)F)c(NC(=O)C(C)(C)C)c3)cn2n1 [Example 302, N-(5-(6-(isobutylamino)imidazo[1,2-b]pyridazin-2-yl)-2-(trifluoromethyl)phenyl)pivalamide]
IC50 [1, 3]: 522 nM | IC50 [2, 4]: 443 nM

CCOC1CCN(c2ccc3nc(-c4ccc(C(F)(F)F)c(NC(=O)C(C)(C)C)c4)cn3n2)CC1 [Example 367, N-(5-(6-(4-ethoxypiperidin-1-yl)imidazo[1,2-b]pyridazin-2-yl)-2-(trifluoromethyl)phenyl)pivalamide]
IC50 [1, 3]: 312 nM | IC50 [2, 4]: 343 nM

CCOc1ccc2nc(-c3ccc(C(F)(F)F)c(S(=O)(=O)NC)c3)cn2n1 [Example 217, 5-(6-ethoxyimidazo[1,2-b]pyridazin-2-yl)-N-methyl-2-(trifluoromethyl)benzenesulfonamide]
IC50 [1, 3]: 6600 nM | IC50 [2, 4]: 535 nM

Cc1ccc(-c2ccc3nc(-c4ccc(C(F)(F)F)c(NC(=O)C(C)(C)C)c4)cn3n2)cc1 [Example 239, N-(5-(6-p-tolylimidazo[1,2-b]pyridazin-2-yl)-2-(trifluoromethyl)phenyl)pivalamide]
IC50 [1, 3]: 523 nM | IC50 [2, 4]: 335 nM

CC(O)COc1ccc2nc(-c3ccc(C(F)(F)F)c(NC(=O)C(C)(C)C)c3)cn2n1 (stereo not drawn) [Example 376, N-(5-(6-(2-hydroxypropoxy)imidazo[1,2-b]pyridazin-2-yl)-2-(trifluoromethyl)phenyl)pivalamide]
IC50 [1, 3]: 616 nM | IC50 [2, 4]: 874 nM

Cc1ccc(-c2cn3nc(-c4ccc(C(N)=NO)cc4F)ccc3n2)cc1NC(=O)C(C)(C)C [compound 567]
IC50 [1, 3]: 219 nM | IC50 [2, 4]: 298 nM

Cc1c(-c2ccccc2)nc2ccc(N3CCN(Cc4cccc(C(F)(F)F)c4)CC3)nn12 [Example 165, 3-methyl-2-phenyl-6-(4-(3-(trifluoromethyl)benzyl)piperazin-1-yl)imidazo[1,2-b]pyridazine]
IC50 [1, 3]: 890 nM | IC50 [2, 4]: > 10000 nM

Cc1cccc(-c2ccc3nc(-c4ccc(C(F)(F)F)c(NC(=O)C(C)(C)C)c4)cn3n2)n1 [Example 149, N-(5-(6-(6-methylpyridin-2-yl)imidazo[1,2-b]pyridazin-2-yl)-2-(trifluoromethyl)phenyl)pivalamide]
IC50 [1, 5]: 300 to 3000 nM | IC50 [1, 3]: 1020 nM | IC50 [1, 6]: 300 to 3000 nM | IC50 [2, 7]: 300 to 3000 nM | IC50 [2, 4]: 1750 nM

CC(C)(C)C(=O)Nc1cc(-c2cn3nc(-c4cccnc4C(F)(F)F)ccc3n2)c(F)cc1Cl [Example 650, N-(2-chloro-4-fluoro-5-(6-(2-(trifluoromethyl)pyridin-3-yl)imidazo[1,2-b]pyridazin-2-yl)phenyl)pivalamide]
IC50 [1, 5]: < 300 nM | IC50 [1, 3]: 100 nM | IC50 [1, 6]: < 300 nM | IC50 [2, 7]: < 300 nM | IC50 [2, 4]: 25 nM

CC(=O)Nc1ccccc1-c1ccc2nc(-c3ccc(C)c(NC(=O)C(C)(C)C)c3)cn2n1 [Example 289, N-(5-(6-(2-acetamidophenyl)imidazo[1,2-b]pyridazin-2-yl)-2-methylphenyl)pivalamide]
IC50 [1, 3]: 284 nM | IC50 [2, 4]: 90 nM

CC1CN(C2CCN(c3ccc4nc(-c5ccc(C(F)(F)F)c(NC(=O)C(C)(C)C)c5)cn4n3)CC2)CC(C)O1 (stereo not drawn) [Example 370, N-(5-(6-(4-(2,6-dimethylmorpholino)piperidin-1-yl)imidazo[1,2-b]pyridazin-2-yl)-2-(trifluoromethyl)phenyl)pivalamide]
IC50 [1, 3]: 321 nM | IC50 [2, 4]: 333 nM

CC(C)(C)C(=O)Nc1cc(-c2cn3nc(N4CCCCC4)ccc3n2)ccc1C(F)(F)F [Example 288, N-(5-(6-(piperidin-1-yl)imidazo[1,2-b]pyridazin-2-yl)-2-(trifluoromethyl)phenyl)pivalamide]
IC50 [1, 3]: 345 nM | IC50 [2, 4]: 258 nM

Cc1ccncc1-c1ccc2nc(-c3ccc(C(F)(F)F)c(NC(=O)C(C)(C)C)c3)cn2n1 [Example 383, N-(5-(6-(4-methylpyridin-3-yl)imidazo[1,2-b]pyridazin-2-yl)-2-(trifluoromethyl)phenyl)pivalamide]
IC50 [1, 3]: 193 nM | IC50 [2, 4]: 141 nM

CN[C@H]1CCN(c2ccc3nc(-c4ccc(C)c(NC(=O)C(C)(C)C)c4)cn3n2)C1 [Example 392, (S)-N-(2-methyl-5-(6-(3-(methylamino)pyrrolidin-1-yl)imidazo[1,2-b]pyridazin-2-yl)phenyl)pivalamide]
IC50 [1, 3]: 77 nM | IC50 [2, 4]: 93 nM

CCOC(=O)COc1ccc(C(F)(F)F)c(-c2ccc3nc(-c4ccc(C)c(NC(=O)C(C)(C)C)c4)cn3n2)c1 [Example 477, ethyl 2-(3-(2-(4-methyl-3-pivalamidophenyl)imidazo[1,2-b]pyridazin-6-yl)-4-(trifluoromethyl)phenoxy)acetate]
IC50 [1, 3]: 247 nM | IC50 [2, 4]: 521 nM

Cc1ccc(-c2cn3nc(N4CCC(O)C4)ccc3n2)cc1NC(=O)C(C)(C)C (stereo not drawn) [Example 468, N-(5-(6-(3-hydroxypyrrolidin-1-yl)imidazo[1,2-b]pyridazin-2-yl)-2-methylphenyl)pivalamide]
IC50 [1, 3]: 44 nM | IC50 [2, 4]: 23 nM

Cc1ccc(-c2ccc3nc(-c4ccc(C(F)(F)F)c(NC(=O)C(C)(C)C)c4)cn3n2)nc1 [Example 150, N-(5-(6-(5-methylpyridin-2-yl)imidazo[1,2-b]pyridazin-2-yl)-2-(trifluoromethyl)phenyl)pivalamide]
IC50 [1, 3]: 1280 nM | IC50 [2, 4]: 2740 nM
